This is an account of results in paper PMC11547452, “Synthesis of New Pyrazolo[3,4-d]pyrimidine Derivatives: NMR Spectroscopic Characterization, X-Ray, Hirshfeld Surface Analysis, DFT, Molecular Docking, and Antiproliferative Activity Investigations” (Molecules, 2024).

One data set concerns HCT 116. Nature of the data set: MTT antiproliferative assay, HCT 116. In kind it is cell-based. The following applies: Homo sapiens, three different experiments, read-out: In Vitro Cytotoxicity IC50. As to the method: (§1) The antiproliferative activity of P1–P4 was evaluated by the MTT standard assay and sunitinib (a well-known FDA-approved multi-kinase inhibitor) as a reference against HCT 116, HepG2, and MCF-7 cell lines, and WI38 normal cell line. […] The antiproliferative activity of P1–P4 was assessed by using an MTT standard assay and sunitinib drug towards HCT 116, HepG2, MCF-7 cells, and WI38 normal cell line using the previously described methodology.

For a further data set, the system named is HepG2. Nature of the data set: MTT antiproliferative assay, HepG2. In kind it is cell-based. The settings on record: Homo sapiens, three different experiments, read-out: In Vitro Cytotoxicity IC50. As to the method: as §1
For orientation: Formazan colour is commonly taken as a measure of viable cells.

A further data set concerns MCF-7. Briefly: MTT antiproliferative assay, MCF-7. In kind it is cell-based. The settings on record: Homo sapiens, MCF7, three different experiments, read-out: In Vitro Cytotoxicity IC50. As to the method:
as §1

Data set [1] in a line: MTT cytotoxicity assay, WI38 normal cell line. In kind it is cell-based. The settings on record: human, WI38 normal cells; WI38 normal cell line; MTT; three different experiments; read-out: In Vitro Cytotoxicity IC50. As for the experimental part: as §1
Data set [2] relates to HCT 116, HepG2, and MCF-7 cell lines. Nature of the data set: MTT antiproliferative assay, summary over the tested cell lines. In kind it is cell-based. The following applies: across the tested cancer cell lines. As for the experimental part:
as §1

Another data set deals with WI38 normal cell line. Nature of the data set: MTT cytotoxicity assay, WI38 normal cell line. In kind it is cell-based. The following applies: cancer cell lines vs WI38 normal cell line; formula not given. As for the experimental part: as §1

Broadly, the IC50 is the midpoint of a concentration-inhibition curve. `Cc1nn(-c2ccccc2)c2ncn(CC(=O)c3ccccc3)c(=O)c12` [Compound P4, 3-Methyl-5-(2-oxo-2-phenylethyl)-1-phenyl-1,5-dihydro-4H-pyrazolo[3,4-d]pyrimidin-4-one]: the IC50 in the data set with HCT 116 is 92.5 ± 4.9 µM; in the data set on HepG2 it was 66.8 ± 3.8 µM; in the data set on MCF-7 it was greater than 100 µM; in data set [1], 44 ± 2.6 µM; in data set [2] it was greater than 67 µM.

As usually defined, the melting point is the temperature of the solid-liquid transition. Consider `C#CCn1cnc2c(c(C)nn2-c2ccccc2)c1=O` [Compound P3, 3-Methyl-1-phenyl-5-(prop-2-yn-1-yl)-1,5-dihydro-4H-pyrazolo[3,4-d]pyrimidin-4-one], for which the melting point lay within 155 to 157 °C. Besides, the IC50 in the data set with HCT 116 came to 89.9 ± 4.5 µM. The IC50 in the data set on HepG2 was 88.6 ± 4.7 µM. In addition, the IC50 in the data set with MCF-7 was 85.2 ± 4.4 µM. For the same compound, the IC50 in data set [1] stood at 52.5 ± 3.1 µM. In addition, the “Selectivity Index” value in the data set on WI38 normal cell line turned out to be 1.67. For the same compound, the IC50 in data set [2] is greater than 67 µM.

In the case of `CCN(CC)CCNC(=O)c1c(C)[nH]c(/C=C2\C(=O)Nc3ccc(F)cc32)c1C` [Sunitinib, sunitinib, reference compound], in data set [1], the IC50 was determined as 55.6 ± 3.3 µM. In the data set on WI38 normal cell line, the “Selectivity Index” value was 0.30.

With `Cc1nn(-c2ccccc2)c2nc[nH]c(=O)c12` [Compound P1, 3-methyl-1-phenyl-1,5-dihydro-4H-pyrazolo[3,4-d]pyrimidin-4-one], the melting point lay in the range of 153 to 155 °C. For the same compound, the IC50 in the data set with HCT 116 was 28.9 ± 2.1 µM. The IC50 in the data set on HepG2 is 22.7 ± 1.7 µM. Moreover, the IC50 in the data set with MCF-7 turned out to be 36.3 ± 2.6 µM. Also, the IC50 in data set [1] turned out to be 85.7 ± 4.7 µM. For the same compound, in data set [2], the IC50 was in the range of 22.7 to 40.8 µM.

`Cc1nn(-c2ccccc2)c2ncn(C)c(=O)c12` [Compound P2, 3,5-Dimethyl-1-phenyl-1,5-dihydro-4H-pyrazolo[3,4-d]pyrimidin-4-one] registered a melting point of 143 to 145 °C. Moreover, the IC50 with HCT 116 was found to be 38.7 ± 2.3 µM. The IC50 with HepG2 is 31.9 ± 2.1 µM. For the same compound, the IC50 in the data set on MCF-7 is 40.8 ± 2.4 µM. Moreover, the IC50 in data set [1] is greater than 100 µM. In data set [2], this compound displayed a concentration for half-maximal inhibition (IC50) of 22.7 to 40.8 µM.
